Our source for the IC50 values is US7816522B2, “Triazolone derivatives” (Eisai Co., Ltd., priority 2006, dated 2010).

This test addresses T1, human clotting factor VIIa (Homo sapiens, UniProt P08709).
T1 construct: a human clotting factor VIIa (hereinafter, “Factor VIIa”) purified sample; purchased Enzyme Research Laboratories HFVIIa
Kind of test: Inhibitory activity against clotting factor VIIa (chromogenic substrate Spectrozyme FVIIa, TF/Factor VIIa enzyme solution). In kind it is biochemical. Particulars: human Factor VIIa 5 nmol/L with human TF 10 nmol/L, room temperature 40 minutes, 405 nm. Put shortly: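 Human Factor VIIa (5 nmol/L) with human TF (10 nmol/L) in Tris-BSA buffer pH 7.4 containing 15 mmol/L CaCl2 and cephalin, with Spectrozyme FVIIa substrate. Reaction 40 min at room temperature; 4-nitroanilide read at 405 nm. IC50 by non-linear regression over 100 μmol/L–0.1 nmol/L.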

SMILES strings stand for the structures. Counter-ions that a name gives are not always drawn.

T1 sequence (P08709 213-466 limits assumed): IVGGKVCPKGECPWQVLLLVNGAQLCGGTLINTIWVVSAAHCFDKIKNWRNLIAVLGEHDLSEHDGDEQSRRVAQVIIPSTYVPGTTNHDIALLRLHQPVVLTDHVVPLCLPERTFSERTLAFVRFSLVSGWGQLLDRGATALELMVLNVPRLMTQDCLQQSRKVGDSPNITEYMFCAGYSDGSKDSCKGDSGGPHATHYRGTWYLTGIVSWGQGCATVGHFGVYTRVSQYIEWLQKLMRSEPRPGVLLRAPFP
T1 sequence (P08709 61-212 limits assumed): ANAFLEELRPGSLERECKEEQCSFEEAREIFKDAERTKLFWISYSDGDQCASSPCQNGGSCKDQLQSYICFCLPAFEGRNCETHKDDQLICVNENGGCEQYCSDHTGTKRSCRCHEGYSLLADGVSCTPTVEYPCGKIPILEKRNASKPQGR
T1 sequence (P13726 33-295 partner): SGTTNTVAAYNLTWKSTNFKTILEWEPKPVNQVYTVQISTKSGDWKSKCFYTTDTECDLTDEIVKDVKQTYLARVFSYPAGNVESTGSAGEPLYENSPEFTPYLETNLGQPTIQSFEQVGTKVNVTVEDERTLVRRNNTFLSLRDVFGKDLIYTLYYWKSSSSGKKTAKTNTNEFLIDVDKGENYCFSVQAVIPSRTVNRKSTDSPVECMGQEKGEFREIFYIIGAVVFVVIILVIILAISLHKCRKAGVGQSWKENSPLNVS

Molecule `CCOc1cc(OCCF)c(F)c(C(Nc2ccc(C(=N)N)cc2)c2nn(-c3cccnn3)c(=O)[nH]2)c1` (racemic) [Example 70, 4-({(R) and (S)-[5-ethoxy-2-fluoro-3-(2-fluoroethoxy)phenyl]-(5-oxo-1-pyridazin-3-yl-4,5-dihydro-1H-[1,2,4]triazol-3-yl)methyl}amino)benzamidine acetate] showed a half-inhibitory concentration (IC50) of 4.9 nM. For `CCOc1cc(OC)c(F)c(C(Nc2ccc(C(=N)N)cc2)c2nn(-c3cccnn3)c(=O)[nH]2)c1` (racemic) [Example 71, (R) and (S)-4-{[(5-ethoxy-2-fluoro-3-methoxyphenyl)-(5-oxo-1-pyridazin-3-yl-4,5-dihydro-1H-[1,2,4]triazol-3-yl)methyl]amino}benzamidine acetate] the value was 7.7 nM; for `COc1cc(COCCF)cc(C(Nc2ccc(C(=N)N)cc2)c2nn(-c3ncccn3)c(=O)[nH]2)c1` (racemic) [Example 72, (R) and (S)-4-({[3-(2-fluoroethoxymethyl)-5-methoxyphenyl]-(5-oxo-1-pyrimidin-2-yl-4,5-dihydro-1H-[1,2,4]triazol-3-yl)methyl}amino)benzamidine acetate], 10 nM; for `COCc1cc(OC)cc(C(Nc2ccc(C(=N)N)cc2)c2nn(-c3cccnn3)c(=O)[nH]2)c1` (racemic) [Example 73, (R) and (S)-4-{[(3-methoxy-5-methoxymethylphenyl)-(5-oxo-1-pyridazin-3-yl-4,5-dihydro-1H-[1,2,4]triazol-3-yl)methyl]amino}benzamidine trifluoroacetate], 11.2 nM.

In turn, `CCc1cc(OCCF)cc(C(Nc2ccc(C(=N)N)cc2)c2nn(-c3ncccn3)c(=O)[nH]2)c1` (racemic) [Example 74, (R) and (S)-4-({[3-ethyl-5-(2-fluoroethoxy)phenyl]-(5-oxo-1-pyrimidin-2-yl-4,5-dihydro-1H-[1,2,4]triazol-3-yl)methyl}amino)benzamidine acetate] came in with a half-inhibitory concentration (IC50) of 3.3 nM. As to `CCc1cc(OC)cc(C(Nc2ccc(C(=N)N)cc2)c2nn(-c3ncccn3)c(=O)[nH]2)c1` (racemic) [Example 75, (R) and (S)-4-{[(3-ethyl-5-methoxyphenyl)-(5-oxo-1-pyrimidin-2-yl-4,5-dihydro-1H-[1,2,4]triazol-3-yl)methyl]amino}benzamidine acetate], the IC50 was found to be 5.2 nM. For `CCc1cc(OCCOC)cc(C(Nc2ccc(C(=N)N)cc2)c2nn(-c3ncccn3)c(=O)[nH]2)c1` (racemic) [Example 76, (R) and (S)-4-({[3-ethyl-5-(2-methoxyethoxy)phenyl]-(5-oxo-1-pyrimidin-2-yl-4,5-dihydro-1H-[1,2,4]triazol-3-yl)methyl}amino)benzamidine trifluoroacetate] the value was 5.2 nM; for `CCOc1cc(OCCF)cc(C(Nc2ccc(C(=N)N)cc2)c2nn(-c3ncccn3)c(=O)[nH]2)c1` (racemic) [Example 78, (R) and (S)-4-({[3-ethoxy-5-(2-fluoroethoxy)phenyl]-(5-oxo-1-pyrimidin-2-yl-4,5-dihydro-1H-[1,2,4]triazol-3-yl)methyl}amino)benzamidine trifluoroacetate], 12.5 nM. For `CCOc1cc(OCC)cc(C(Nc2ccc(C(=N)N)cc2)c2nn(-c3ncccn3)c(=O)[nH]2)c1` (racemic) [Example 79, (R) and (S)-4-{[(3,5-diethoxyphenyl)-(5-oxo-1-pyrimidin-2-yl-4,5-dihydro-1H-[1,2,4]triazol-3-yl)methyl]amino}benzamidine trifluoroacetate] the value was 7.6 nM; for `CCOc1cc(OCCF)cc(C(Nc2ccc(C(=N)N)cc2)c2nn(-c3cccnn3)c(=O)[nH]2)c1` (racemic) [Example 80, (R) and (S)-4-({[3-ethoxy-5-(2-fluoroethoxy)phenyl]-(5-oxo-1-pyridazin-3-yl-4,5-dihydro-1H-[1,2,4]triazol-3-yl)methyl}amino)benzamidine acetate], 6.8 nM; for `COc1cc(C(Nc2ccc(C(=N)N)cc2)c2nn(-c3ncccn3)c(=O)[nH]2)ccc1OCCF` (racemic) [Example 81, (R) and (S)-4-({[4-(2-fluoroethoxy)-3-methoxyphenyl]-(5-oxo-1-pyrimidin-2-yl-4,5-dihydro-1H-[1,2,4]triazol-3-yl)methyl}amino)benzamidine acetate], 18.6 nM. With `COc1cc(C(Nc2ccc(C(=N)N)cc2)c2nn(-c3ncccn3)c(=O)[nH]2)cc2c1OCC2OC` (racemic) [Example 82, (R) and (S)-4-({(3,7-dimethoxy-2,3-dihydrobenzofuran-5-yl)-(5-oxo-1-pyrimidin-2-yl-4,5-dihydro-1H-[1,2,4]triazol-3-yl)methyl}amino)benzamidine acetate] the figure was 7.5 nM; with `C=CCOc1cc(COC)cc(C(Nc2ccc(C(=N)N)cc2)c2nn(-c3ncccn3)c(=O)[nH]2)c1` (racemic) [Example 85, 4-{[(R) and (S)-(3-allyloxy-5-methoxymethylphenyl)-(5-oxo-1-pyrimidin-2-yl-4,5-dihydro-1H-[1,2,4]triazol-3-yl)methyl]amino}benzamidine acetate], 15.3 nM. With `COc1cc(C(Nc2ccc(C(=N)N)cc2)c2nn(-c3cccnn3)c(=O)[nH]2)cc(OC)c1OC` (racemic) [Example 88, 4-{[(R) and (S)-(5-oxo-1-pyridazin-3-yl-4,5-dihydro-1H-[1,2,4]triazol-3-yl)-(3,4,5-trimethoxyphenyl)methyl]amino}benzamidine trifluoroacetate], the half-maximal inhibitory concentration (IC50) is 8.5 nM. Regarding `COc1cc(C(Nc2ccc(C(=N)N)cc2)c2nn(-c3cccnn3)c(=O)[nH]2)cc(OCCF)c1OC` (racemic) [Example 89, 4-{[(R) and (S)-[3-(2-fluoroethoxy)-4,5-dimethoxyphenyl]-(5-oxo-1-pyridazin-3-yl-4,5-dihydro-1H-[1,2,4]triazol-3-yl)methyl]amino}benzamidine acetate], 9.2 nM corresponded to half-maximal inhibition (IC50).

Regarding `COCCOc1cc(OC)cc(C(Nc2ccc(C(=N)N)cc2)c2nn(-c3ncccn3)c(=O)[nH]2)c1F` (racemic) [Example 92, 4-{[(R) and (S)-[2-fluoro-5-methoxy-3-(2-methoxyethoxy)phenyl]-(5-oxo-1-pyrimidin-2-yl-4,5-dihydro-1H-[1,2,4]triazol-3-yl)methyl]amino}benzamidine acetate], the IC50 is 11.6 nM.

`COc1cc(C)cc(C(Nc2ccc(C(=N)N)cc2)c2nn(-c3ncccn3)c(=O)[nH]2)c1` (racemic) [Example 93, 4-{[(R) and (S)-(3-methoxy-5-methylphenyl)-(5-oxo-1-pyrimidin-2-yl-4,5-dihydro-1H-[1,2,4]triazol-3-yl)methyl]amino}benzamidine acetate] displayed an IC50 of 30.3 nM. For `COCCOc1cc(C)cc(C(Nc2ccc(C(=N)N)cc2)c2nn(-c3ncccn3)c(=O)[nH]2)c1` (racemic) [Example 94, 4-{[(R) and (S)-[3-(2-methoxyethoxy)-5-methylphenyl]-(5-oxo-1-pyrimidin-2-yl-4,5-dihydro-1H-[1,2,4]triazol-3-yl)methyl]amino}benzamidine acetate] the value was 12.7 nM; for `COc1ccccc1-n1nc(C(Nc2ccc(C(=N)N)cc2)c2cc3c(c(OC)c2)OCOC3)[nH]c1=O` (racemic) [Example 95, 4-({(R) and (S)-(8-methoxy-4H-benzo[1,3]dioxin-6-yl)-[1-(2-methoxyphenyl)-5-oxo-4,5-dihydro-1H-[1,2,4]triazol-3-yl]methyl}amino)benzamidine acetate], 1.3 nM; for `CCOc1ccc(F)c(C(Nc2ccc(C(=N)N)cc2)c2nn(-c3ncccn3)c(=O)[nH]2)c1` (racemic) [Example 96, 4-{[(R) and (S)-(5-ethoxy-2-fluorophenyl)-(5-oxo-1-pyrimidin-2-yl-4,5-dihydro-1H-[1,2,4]triazol-3-yl)methyl]amino}benzamidine acetate], 17 nM. For `Cc1cc(C(Nc2ccc(C(=N)N)cc2)c2nn(-c3ncccn3)c(=O)[nH]2)cc2c1OCOC2` (racemic) [Example 97, 4-{[(R) and (S)-(8-methyl-4H-benzo[1,3]dioxin-6-yl)-(5-oxo-1-pyrimidin-2-yl-4,5-dihydro-1H-[1,2,4]triazol-3-yl)methyl]amino}benzamidine acetate] the value was 11.3 nM; for `N=C(N)c1ccc(NC(c2nn(-c3ncccn3)c(=O)[nH]2)c2cc(OCCF)cc(OCCF)c2F)cc1` (racemic) [Example 98, 4-{[(R) and (S)-[2-fluoro-3,5-bis-(2-fluoroethoxy)phenyl]-(5-oxo-1-pyrimidin-2-yl-4,5-dihydro-1H-[1,2,4]triazol-3-yl)methyl]amino}benzamidine acetate], 28.7 nM; for `COc1cc(OCC(F)F)c(F)c(C(Nc2ccc(C(=N)N)cc2)c2nn(-c3ncccn3)c(=O)[nH]2)c1` (racemic) [Example 99, 4-{[(R) and (S)-[3-(2,2-difluoroethoxy)-2-fluoro-5-methoxyphenyl]-(5-oxo-1-pyrimidin-2-yl-4,5-dihydro-1H-[1,2,4]triazol-3-yl)methyl]amino}benzamidine acetate], 3.9 nM.

The molecule `COc1cc(OCCF)c(F)c(C(Nc2ccc(C(=N)N)cc2)c2nn(-c3cnccn3)c(=O)[nH]2)c1` (racemic) [Example 100, 4-{[(R) and (S)-[2-fluoro-3-(2-fluoroethoxy)-5-methoxyphenyl]-(5-oxo-1-pyrazin-2-yl-4,5-dihydro-1H-[1,2,4]triazol-3-yl)methyl]amino}benzamidine acetate] yielded an IC50 of 5.3 nM. The IC50 values of the last two molecules are within 1.5-fold of each other. `COc1cc(F)c(C(Nc2ccc(C(=N)N)cc2)c2nn(-c3cnccn3)c(=O)[nH]2)cc1OC` (racemic) [Example 101, 4-{[(R) and (S)-(2-fluoro-4,5-dimethoxyphenyl)-(5-oxo-1-pyrazin-2-yl-4,5-dihydro-1H-[1,2,4]triazol-3-yl)methyl]amino}benzamidine acetate] showed a half-maximal inhibitory concentration (IC50) of 11 nM.

One may read the IC50 as the concentration that gives 50% inhibition. Low readings indicate inhibition by little substance, high ones a need for much substance.
